Source: patent US20040110681A1, “Method to identify targeting molecules” (priority 2002, published 2004)
Positions of bridges follow the written chain, without caps; N, C: chain ends. Residues, ends and D or L forms follow the SMILES beside them.

How the values were obtained:
brain tissue = assay: Individual peptide variants of A3 on phage, brain selectivity index vs T7-lacZ; type: in vivo, FVB or BALB/c mice; details: 2 hours circulation; for Brain Targeting Activity: 0.5-1×10^10 pfu co-injected with T7-lacZ; for Selectivity index (FVB female) / Selectivity index (BALB/C mice): brain tissue; for Selectivity index (FVB female): FVB female mice
Procedure: In this example, various individual peptide variants of A3 were tested in vivo for their ability to target brain or other tissues. […] The phage contents of each organ were determined by plaque assay in the presence of X-gal (500 μg/mL) in top agar.
Thus, selectively indices of less than 10 are considered low, those between 10 and […] are considered moderate and those over 100 are considered high.

[1] = Pharmacokinetic analysis, plasma half-life of fusion protein and free peptide; type: in vivo; details: read-out: plasma t½
brain [2] = assay: Head to head comparison of CAGAXCY variants (L5, N5, M5) vs control lacZ phage; type: in vivo; details: 6 hours after administration vs 2 hours
brain [3] = assay: CX4CY phage library, one round of in vivo panning to brain; parameters: species or system BALB/c mice; details: 4 hrs post phage injection
Procedure: A CX4CY library was prepared and tested. 1×10^10 pfu of the library phage were injected into 6 BALB/c mice (3 mice/time point). At 30 min and 4 hr post-injection, brain was harvested and processed as described above. Similar numbers of plaques were picked individually, and the insert sequence amplified by PCR and sequenced. Alignment analysis of the sequence data was performed with a version of Clustral/W.

brain [4] = assay: kSAR: co-injection of all 20 CAGAXCY (position 5) phage variants, sequence frequency in brain; type: in vivo, BALB/c mice
Procedure: To determine the optimum amino acid for position 5, all 20 variants at this position were injected. For co-injection of all 20 variants of CAGAXCY phage, individual phage were grown up and titered. Equivalent amounts of each phage type were added to PBS and 200 μL dose of the mixture was injected into 3 BALB/c mice per group (two time points of 30 minutes and 4 hours were studied, total of 6 mice). At 30 min and 4 hrs post injection, the mice were anesthetized, perfused and blood and brain were harvested. Aliquots of both the initial phage pool used for dosing as well as brain tissue samples were plated out, and approximately 100 individual plaques from each set were amplified by PCR using the T7 Super up primer method and sequenced using a CEQ 2000XL sequencer (Beckman Coulter, Calif.).
A total of 107 individual phage from the initial mixture used for dosing were sequenced to verify the relative abundance of the individual phage within the administered dose and these were compared with the relative frequency of the different phage recovered from brain after 30 minutes or 4 hours of circulation. There was a marked and rapid shift in frequency even by 30 minutes, where there was a marked enrichment of phage expressing N at the X5 position, (from 7% in the initial pool to 49%), M (from 5% to 24%) or L (2.8% to 12%) at 30 minutes.

[5] = 30 minutes after injection of 20-variant mixture
[6] = 4 hours after injection of 20-variant mixture

Compound | Brain Targeting Activity (brain tissue) | Selectivity index (FVB female) (brain tissue) | further results
CGALCY | No | 0.8 | –
CAGAGCY | No | 1.1 | Brain Targeting Activity (brain tissue; listed as L5G): loss of brain targeting activity
CGGALCY | No | 0.7 | Brain Targeting Activity (brain tissue; listed as A2G): loss of brain targeting activity
CAGALCF | Yes | >200 | Selectivity index (BALB/C mice) (brain tissue): 800
CC(C)C[C@@H]1NC(=O)[C@H](C)NC(=O)CNC(=O)[C@H](C)NC(=O)[C@@H](N)CSSC[C@@H](C(=O)N[C@@H](Cc2ccc(O)cc2)C(=O)O)NC1=O [free synthetic peptide, CAGALCY] (H-CAGALCY-OH; disulfide 1-6) | – | – | half-life [1]: 1 to 2 min
CAGAPCY | brain targeting capacity is lost and No | 7.6 | –
CAGALCS | loss of brain targeting activity and No | 3.0 | –
CRDVNECD [reference compound] | No | 0.3 | Selectivity index (BALB/C mice) (brain tissue): 1
CAGAMCY | – | – | change of brain SI values (brain [2]): increase further; enrichment among 83 sequences sampled from the brain (brain [3]): no enriched phage; frequency of phage variant recovered from brain (brain [4]; [5]): 24%; frequency of phage variant recovered from brain (brain [4]; [6]): 37%
CGADALCY | No | – | Selectivity index (BALB/C mice) (brain tissue): 1
CAGANCY | – | – | change of brain SI values (brain [2]): slight decrease; enrichment among 83 sequences sampled from the brain (brain [3]): no enriched phage; frequency of phage variant recovered from brain (brain [4]; [5]): 49%; frequency of phage variant recovered from brain (brain [4]; [6]): 55%
CYGDPC [reference compound] | No | 0.8 | –
CAGALCAY | brain targeting activity is lost and No | 1.4 | –
